DBAASP
Values after ≈ are worked out from the molar mass of the structure shown. One block for each compound: values may come before it.

How the values were obtained:
Test in all cases: ≥ marks a high value that may be exact or a test limit, other limits are often not marked, values filed in µg/mL are converted to µM
[1] = system: Bacillus subtilis SMY
[2] = system: Bacillus subtilis
[3] = system: Candida albicans
[4] = system: Cryptococcus neoformans
[5] = system: Escherichia coli ATCC 23716
[6] = system: Escherichia coli
[7] = system: Pseudomonas putida
[8] = system: Saccharomyces cerevisiae
[9] = system: Salmonella typhimurium
[10] = system: Serratia marcescens
[11] = system: Staphylococcus aureus
[12] = system: Streptococcus mutans
[13] = system: Streptococcus pneumoniae
[14] = system: Bacillus cereus NCLM 2156
[15] = system: Escherichia coli NCLM 2064
[16] = system: Pseudomonas aeruginosa ATCC 10145
[17] = system: Staphylococcus aureus ATCC 25923
[18] = system: Vibrio cholerae PL91
[19] = system: Bacillus cereus ATCC 11778
[20] = system: Escherichia coli ATCC 25922
[21] = system: Klebsiella pneumoniae ATCC 700603
[22] = system: Pseudomonas aeruginosa ATCC 27853
[23] = system: Salmonella enterica subsp. enterica serovar Enteritidis ATCC 13076
[24] = system: Serratia marcescens ATCC 21202
[25] = system: Staphylococcus aureus ATCC 29213
[26] = system: Streptococcus pyogenes ATCC 19615
[27] = system: Acinetobacter baumannii
[28] = system: Bacillus subtilis ATCC 6633
[29] = system: Candida albicans ATCC 90112
[30] = system: Enterobacter cloacae
[31] = system: Enterococcus faecalis
[32] = system: Escherichia coli NBRC 14237
[33] = system: Klebsiella pneumoniae
[34] = system: Micrococcus luteus ATCC 10240
[35] = system: Micrococcus luteus NBRC 12708
[36] = system: Morganella morganii
[37] = system: Proteus mirabilis
[38] = system: Saccharomyces cerevisiae NBRC 10217
[39] = system: Shigella boydii
[40] = system: Staphylococcus aureus NBRC 12732
[41] = system: Stenotrophomonas maltophilia ATCC 13637
[42] = system: Streptococcus agalactiae
[43] = system: Streptococcus pyogenes
[44] = system: Acinetobacter baumannii ATCC 15308
[45] = system: Citrobacter sp.
[46] = system: Pseudomonas aeruginosa ATCC 15442

MIC [1]: ≥ 173 µM
MIC [2]: 21.7 µM (≈ 32 µg/mL)
MIC [3]: 21.7 µM (≈ 32 µg/mL)
MIC [4]: ≥ 43.3 µM
MIC [5]: ≥ 173 µM
MIC [6]: 21.7 µM (≈ 32 µg/mL)
MIC [7]: ≥ 43.3 µM
MIC [8]: ≥ 43.3 µM
MIC [9]: 10.8 µM (≈ 16 µg/mL)
MIC [10]: 21.7 µM (≈ 32 µg/mL)
MIC [11]: 21.7 µM (≈ 32 µg/mL)
MIC [12]: 21.7 µM (≈ 32 µg/mL)
MIC [13]: 21.7 µM (≈ 32 µg/mL)
SMILES: CC(C)C[C@H](NC(=O)[C@H](CC(C)C)NC(=O)[C@H](CCCN=C(N)N)NC(=O)[C@H](Cc1cnc[nH]1)NC(=O)[C@@H](NC(=O)[C@H](CCCN=C(N)N)NC(=O)CNC(=O)[C@@H](NC(=O)[C@@H]1CCCN1C(=O)[C@@H](N)Cc1ccccc1)C(C)C)C(C)C)C(=O)N[C@@H](CCCN=C(N)N)C(=O)N[C@@H](CCCCN)C(=O)O [FPVGRVHRLLRK]

MIC [14]: ≥ 51.1 µM
MIC [15]: 13.6 µM (≈ 40 µg/mL)
MIC [16]: ≥ 34.1 µM
MIC [17]: > 51.1 µM
SMILES: CC[C@H](C)[C@H](NC(=O)CN)C(=O)NCC(=O)N[C@@H](CO)C(=O)N[C@@H](CCSC)C(=O)N[C@@H](CC(C)C)C(=O)N[C@@H](CC(C)C)C(=O)NCC(=O)N[C@@H](CC(C)C)C(=O)N[C@@H](C)C(=O)N[C@@H](CCCCN)C(=O)N[C@@H](CC(N)=O)C(=O)N[C@H](C(=O)NCC(=O)N[C@@H](CCSC)C(=O)N[C@@H](CO)C(=O)N[C@@H](CC(C)C)C(=O)N[C@@H](CC(C)C)C(=O)N[C@@H](CC(N)=O)C(=O)N[C@@H](CCCCN)C(=O)N[C@@H](C)C(=O)N[C@@H](CCC(N)=O)C(=O)N[C@H]1CSSC[C@@H](C(=O)O)NC(=O)[C@H](CCCCN)NC(=O)CNC(=O)[C@H](CO)NC(=O)[C@H]([C@@H](C)CC)NC(=O)[C@H](CCCCN)NC1=O)C(C)C [GIGSMLLGLAKNVGMSLLNKAQCKISGKC]
MIC [18]: ≥ 51.1 µM

MIC [19]: ≥ 63.4 µM
MIC [20]: > 63.4 µM
MIC [21]: > 63.4 µM
MIC [22]: > 63.4 µM
MIC [23]: ≥ 63.4 µM
MIC [24]: ≥ 63.4 µM
MIC [25]: > 63.4 µM
MIC [26]: ≥ 63.4 µM
SMILES: CC(C)C[C@H](NC(=O)[C@H](CC(C)C)NC(=O)[C@H](CC(=O)O)NC(=O)[C@H](CC(N)=O)NC(=O)[C@H](CC(C)C)NC(=O)[C@H](CC(C)C)NC(=O)[C@H](CC(N)=O)NC(=O)CNC(=O)[C@@H](NC(=O)[C@H](CC(C)C)NC(=O)[C@@H]1CCCN1C(=O)[C@H](CC(C)C)NC(=O)[C@@H](N)C(C)C)C(C)C)C(=O)NCC(=O)N[C@@H](CCCCN)C(=O)O [VLPLVGNLLNDLLGK]

MIC [27]: 3.75 µM (≈ 7.27 µg/mL)
MIC [28]: 3.75 µM (≈ 7.27 µg/mL)
MIC [29]: 7.5 µM (≈ 14.5 µg/mL)
MIC [30]: 7.5 µM (≈ 14.5 µg/mL)
MIC [31]: 15 µM (≈ 29.1 µg/mL)
MIC [20]: 3.75 µM (≈ 7.27 µg/mL)
MIC [32]: 3.12 µM (≈ 6.05 µg/mL)
MIC [33]: 3.75 µM (≈ 7.27 µg/mL)
MIC [34]: 1.9 µM (≈ 3.69 µg/mL)
MIC [35]: 3.12 µM (≈ 6.05 µg/mL)
MIC [36]: 30 µM (≈ 58.2 µg/mL)
MIC [37]: 30 µM (≈ 58.2 µg/mL)
MIC [22]: 7.5 µM (≈ 14.5 µg/mL)
MIC [38]: 6.25 µM (≈ 12.1 µg/mL)
MIC [8]: 3.75 µM (≈ 7.27 µg/mL)
MIC [10]: 7.5 µM (≈ 14.5 µg/mL)
MIC [39]: 3.75 µM (≈ 7.27 µg/mL)
MIC [17]: 15 µM (≈ 29.1 µg/mL)
MIC [40]: 1.57 µM (≈ 3.05 µg/mL)
MIC [41]: 3.75 µM (≈ 7.27 µg/mL)
MIC [42]: 3.75 µM (≈ 7.27 µg/mL)
MIC [43]: 3.75 µM (≈ 7.27 µg/mL)
SMILES: CC[C@H](C)[C@H](NC(=O)[C@H](CC(C)C)NC(=O)[C@@H]1CCCN1C(=O)[C@H](CC(C)C)NC(=O)[C@H](CCCCN)NC(=O)[C@H](CCCCN)NC(=O)[C@H](CC(C)C)NC(=O)[C@H](CC(C)C)NC(=O)[C@H](C)NC(=O)[C@@H](NC(=O)[C@H](Cc1ccccc1)NC(=O)CN)C(C)C)C(=O)N[C@@H](CC(C)C)C(=O)N[C@@H](CCCCN)C(=O)N[C@@H](Cc1cnc[nH]1)C(=O)N[C@@H](CC(C)C)C(=O)N[C@@H](Cc1cnc[nH]1)C(N)=O [GFVALLKKLPLILKHLH]

MIC [44]: ≥ 69 µM
MIC [45]: ≥ 138 µM
MIC [30]: ≥ 138 µM
MIC [20]: 17.2 µM (≈ 31.2 µg/mL)
MIC [33]: > 138 µM
MIC [46]: ≥ 34.5 µM
MIC [17]: 17.2 µM (≈ 31.2 µg/mL)
MIC [11]: 17.2 µM (≈ 31.2 µg/mL)
MIC [13]: 17.2 µM (≈ 31.2 µg/mL)
SMILES: CC[C@H](C)[C@H](NC(=O)[C@H](CC(C)C)NC(=O)CNC(=O)CNC(=O)[C@H](CC(C)C)NC(=O)[C@@H](N)Cc1ccccc1)C(=O)N[C@@H](CCCCN)C(=O)N1CCC[C@H]1C(=O)N[C@@H](Cc1c[nH]c2ccccc12)C(=O)N[C@@H](Cc1c[nH]c2ccccc12)C(=O)N1CCC[C@H]1C(=O)N[C@@H](Cc1c[nH]c2ccccc12)C(=O)N[C@@H](CCCN=C(N)N)C(=O)N[C@@H](CCCN=C(N)N)C(N)=O [FLGGLIKPWWPWRR]
